Experimental data taken from patent US20240299400A1, “Transcription Factor GLI1 Inhibitors and Uses Thereof” (University of Connecticut, priority 2023, published 2024).

Columns and labels:
[1] = molecular target: T1, MAP2K1 (Homo sapiens, UniProt Q02750); assay: ZLyte kinase assay, MAP2K1; assay type: biochemical; conditions: average of three replicates
T1 construct: purchased ThermoFisher Scientific (Madison, WI, USA), contract service
Experimental: (§1) Kinase screening experiments. Kinase inhibition/binding experiments were performed by ThermoFisher Scientific (Madison, WI, USA) as a contract service, utilizing their default protocols [G. Yernale, A comprehensive review on the biological interest of quinoline and its derivatives. Bioorg. Med. Chem. 32 (2021) 115973]. Briefly, for ZLyte assay, compound in DMSO (100 nL), kinase buffer (2.4 μL), peptide/kinase mixture (5 μL), and ATP solution (2.5 μL) were mixed in a black 384-well plate. Following a 30 s plate shake to mix reagents, the kinase assay mixture was incubated at RT for 60 min. Following addition of the development reagent solution to each well, another 60 min incubation was performed at RT for reaction development. Fluorescent signal was recorded and subsequently analyzed.

[2] = molecular target: T2, PRKACA (Homo sapiens, UniProt P17612); assay: ZLyte kinase assay, PRKACA; assay type: biochemical; conditions: average of three replicates
T2 construct: purchased ThermoFisher Scientific (Madison, WI, USA), contract service
Experimental: as §1

[3] = system: GLI1 mRNA expression; assay: RT-qPCR GLI1 mRNA expression in Sufu-KO MEFs; assay type: cell-based, mouse; conditions: for IC50: Mus musculus, Ave ± SEM, read-out: RT-qPCR, IC50 Sufu-KO
[4] = molecular target: T3, MET (Homo sapiens, UniProt P08581); assay: ZLyte kinase assay, MET; assay type: biochemical; conditions: average of three replicates
T3 construct: purchased ThermoFisher Scientific (Madison, WI, USA), contract service
T3 sequence (P08581 25-1390): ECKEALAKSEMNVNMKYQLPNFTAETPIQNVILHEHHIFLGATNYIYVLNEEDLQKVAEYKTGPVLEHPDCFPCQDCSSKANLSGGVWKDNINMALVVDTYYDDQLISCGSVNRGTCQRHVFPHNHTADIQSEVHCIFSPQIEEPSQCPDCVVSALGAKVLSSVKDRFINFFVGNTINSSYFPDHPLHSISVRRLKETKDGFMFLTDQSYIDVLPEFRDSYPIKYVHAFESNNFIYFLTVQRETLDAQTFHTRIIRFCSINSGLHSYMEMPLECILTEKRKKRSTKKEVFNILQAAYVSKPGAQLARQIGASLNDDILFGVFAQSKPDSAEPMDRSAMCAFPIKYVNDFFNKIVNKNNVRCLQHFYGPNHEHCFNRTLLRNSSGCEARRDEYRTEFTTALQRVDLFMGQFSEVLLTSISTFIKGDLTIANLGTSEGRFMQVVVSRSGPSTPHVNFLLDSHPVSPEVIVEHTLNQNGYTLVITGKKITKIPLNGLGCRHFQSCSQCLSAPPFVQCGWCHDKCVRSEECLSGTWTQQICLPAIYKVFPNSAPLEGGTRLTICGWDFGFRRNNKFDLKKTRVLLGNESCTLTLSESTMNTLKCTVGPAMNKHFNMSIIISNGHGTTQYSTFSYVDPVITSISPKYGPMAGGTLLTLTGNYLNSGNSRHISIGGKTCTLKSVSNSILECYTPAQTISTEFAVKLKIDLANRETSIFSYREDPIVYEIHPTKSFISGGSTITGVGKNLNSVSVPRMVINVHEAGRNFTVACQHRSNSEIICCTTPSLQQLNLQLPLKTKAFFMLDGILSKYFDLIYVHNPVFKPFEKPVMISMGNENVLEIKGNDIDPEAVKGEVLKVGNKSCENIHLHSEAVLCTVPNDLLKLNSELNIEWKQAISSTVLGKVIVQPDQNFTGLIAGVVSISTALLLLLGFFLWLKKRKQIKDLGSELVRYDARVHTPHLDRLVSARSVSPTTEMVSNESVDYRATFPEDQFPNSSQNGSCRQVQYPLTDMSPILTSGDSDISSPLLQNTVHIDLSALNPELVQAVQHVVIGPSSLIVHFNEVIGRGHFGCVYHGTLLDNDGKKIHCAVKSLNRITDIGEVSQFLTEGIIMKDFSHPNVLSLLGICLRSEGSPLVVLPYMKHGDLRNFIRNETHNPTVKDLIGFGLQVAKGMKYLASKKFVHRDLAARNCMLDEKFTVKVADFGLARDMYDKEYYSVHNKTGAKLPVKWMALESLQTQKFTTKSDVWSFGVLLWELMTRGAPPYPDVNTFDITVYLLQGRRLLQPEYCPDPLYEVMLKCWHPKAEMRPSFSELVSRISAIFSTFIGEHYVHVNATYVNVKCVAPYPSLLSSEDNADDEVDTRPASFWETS
Experimental: as §1

[5] = molecular target: T4, RET (Homo sapiens, UniProt P07949); assay: ZLyte kinase assay, RET; assay type: biochemical; conditions: average of three replicates
T4 construct: purchased ThermoFisher Scientific (Madison, WI, USA), contract service
T4 sequence (P07949 29-1114): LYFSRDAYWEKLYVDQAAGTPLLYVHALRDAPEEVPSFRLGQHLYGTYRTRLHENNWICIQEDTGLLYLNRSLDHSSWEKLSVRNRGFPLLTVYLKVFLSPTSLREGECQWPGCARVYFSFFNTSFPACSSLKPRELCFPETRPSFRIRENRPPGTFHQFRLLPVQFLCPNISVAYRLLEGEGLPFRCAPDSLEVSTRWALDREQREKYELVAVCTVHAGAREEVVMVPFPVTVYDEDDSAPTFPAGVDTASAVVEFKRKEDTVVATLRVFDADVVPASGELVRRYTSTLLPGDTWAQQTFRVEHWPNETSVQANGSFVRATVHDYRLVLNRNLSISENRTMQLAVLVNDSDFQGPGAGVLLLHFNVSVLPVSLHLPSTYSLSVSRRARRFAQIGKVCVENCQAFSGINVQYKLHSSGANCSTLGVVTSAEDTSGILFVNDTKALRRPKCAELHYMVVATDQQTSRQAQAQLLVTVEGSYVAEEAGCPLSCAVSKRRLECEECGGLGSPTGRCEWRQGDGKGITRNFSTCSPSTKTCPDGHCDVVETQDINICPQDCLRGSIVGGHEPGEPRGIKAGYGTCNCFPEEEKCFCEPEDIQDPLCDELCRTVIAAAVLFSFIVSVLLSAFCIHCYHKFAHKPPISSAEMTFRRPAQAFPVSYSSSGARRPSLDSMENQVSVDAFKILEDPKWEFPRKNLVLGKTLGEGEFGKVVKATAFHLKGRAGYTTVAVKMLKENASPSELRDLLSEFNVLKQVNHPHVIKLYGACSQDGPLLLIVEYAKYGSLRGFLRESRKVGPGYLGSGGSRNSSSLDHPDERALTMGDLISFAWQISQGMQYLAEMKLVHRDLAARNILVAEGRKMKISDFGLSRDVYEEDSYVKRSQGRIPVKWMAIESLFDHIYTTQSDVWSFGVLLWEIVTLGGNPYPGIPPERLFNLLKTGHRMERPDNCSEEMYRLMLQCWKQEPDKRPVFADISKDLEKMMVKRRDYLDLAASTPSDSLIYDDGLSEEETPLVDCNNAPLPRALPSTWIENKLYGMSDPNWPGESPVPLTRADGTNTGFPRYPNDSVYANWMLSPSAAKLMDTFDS
Experimental: as §1

[6] = molecular target: T5, TGFBR1 (Homo sapiens, UniProt P36897); assay: LanthaScreen binding assay, TGFBR1; conditions: average of three replicates, read-out: % inhibition of the kinase TGFBR1
T5 construct: purchased ThermoFisher Scientific (Madison, WI, USA), contract service
T5 sequence (P36897 34-503): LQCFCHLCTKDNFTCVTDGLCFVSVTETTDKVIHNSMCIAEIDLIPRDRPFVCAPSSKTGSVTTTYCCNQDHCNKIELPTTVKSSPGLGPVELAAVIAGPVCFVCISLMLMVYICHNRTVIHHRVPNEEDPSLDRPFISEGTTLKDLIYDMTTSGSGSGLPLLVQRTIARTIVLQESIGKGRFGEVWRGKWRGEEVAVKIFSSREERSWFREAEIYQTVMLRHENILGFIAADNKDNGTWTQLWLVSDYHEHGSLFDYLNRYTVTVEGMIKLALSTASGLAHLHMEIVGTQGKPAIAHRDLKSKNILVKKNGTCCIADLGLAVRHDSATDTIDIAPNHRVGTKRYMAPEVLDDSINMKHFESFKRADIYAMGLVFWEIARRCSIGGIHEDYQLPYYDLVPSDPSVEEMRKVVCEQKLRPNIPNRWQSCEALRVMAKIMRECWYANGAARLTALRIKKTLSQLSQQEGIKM
Experimental: as §1
(§2) For the LanthaScreen Binding assay, compounds in DMSO (160 nL), kinase buffer (3.84 μL), kinase/antibody mixture (8.0 μL), and tracer (4.0 μL) were mixed in a white 384-well plate. Following a 30 s plate shake to mix the reagents, the kinase assay mixture was incubated at RT for 60 min. Fluorescent signals were recorded and subsequently analyzed.

[7] = system: GLI1 mRNA expression; assay: RT-qPCR GLI1 mRNA expression in ASZ001 BCC cells; assay type: cell-based, mouse; conditions: Mus musculus, Ave ± SEM, read-out: RT-qPCR, IC50 ASZ001
[8] = molecular target: T6, RPS6KB1 (Homo sapiens, UniProt P23443); assay: ZLyte kinase assay, RPS6KB1; assay type: biochemical; conditions: average of three replicates
T6 construct: purchased ThermoFisher Scientific (Madison, WI, USA), contract service
T6 sequence (P23443 whole entry): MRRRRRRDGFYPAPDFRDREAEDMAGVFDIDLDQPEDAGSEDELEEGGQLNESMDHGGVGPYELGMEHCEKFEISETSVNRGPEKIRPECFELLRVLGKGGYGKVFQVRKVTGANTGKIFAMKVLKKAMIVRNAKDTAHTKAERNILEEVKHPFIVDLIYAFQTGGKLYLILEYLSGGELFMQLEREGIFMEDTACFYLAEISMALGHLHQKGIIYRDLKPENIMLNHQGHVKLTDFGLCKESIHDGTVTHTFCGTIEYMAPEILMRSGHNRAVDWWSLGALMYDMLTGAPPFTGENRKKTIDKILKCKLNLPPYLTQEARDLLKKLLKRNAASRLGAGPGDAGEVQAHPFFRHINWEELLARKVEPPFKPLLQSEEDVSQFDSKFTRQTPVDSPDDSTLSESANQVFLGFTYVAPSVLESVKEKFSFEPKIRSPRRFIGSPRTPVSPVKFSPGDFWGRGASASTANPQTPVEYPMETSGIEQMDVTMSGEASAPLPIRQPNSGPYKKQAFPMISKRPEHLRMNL
Experimental: as §1

[9] = molecular target: T7, DYRK2 (Homo sapiens, UniProt Q92630); assay: LanthaScreen binding assay, DYRK2; conditions: average of three replicates, read-out: % inhibition of the kinase DYRK2
T7 construct: purchased ThermoFisher Scientific (Madison, WI, USA), contract service
T7 sequence (Q92630 1-601): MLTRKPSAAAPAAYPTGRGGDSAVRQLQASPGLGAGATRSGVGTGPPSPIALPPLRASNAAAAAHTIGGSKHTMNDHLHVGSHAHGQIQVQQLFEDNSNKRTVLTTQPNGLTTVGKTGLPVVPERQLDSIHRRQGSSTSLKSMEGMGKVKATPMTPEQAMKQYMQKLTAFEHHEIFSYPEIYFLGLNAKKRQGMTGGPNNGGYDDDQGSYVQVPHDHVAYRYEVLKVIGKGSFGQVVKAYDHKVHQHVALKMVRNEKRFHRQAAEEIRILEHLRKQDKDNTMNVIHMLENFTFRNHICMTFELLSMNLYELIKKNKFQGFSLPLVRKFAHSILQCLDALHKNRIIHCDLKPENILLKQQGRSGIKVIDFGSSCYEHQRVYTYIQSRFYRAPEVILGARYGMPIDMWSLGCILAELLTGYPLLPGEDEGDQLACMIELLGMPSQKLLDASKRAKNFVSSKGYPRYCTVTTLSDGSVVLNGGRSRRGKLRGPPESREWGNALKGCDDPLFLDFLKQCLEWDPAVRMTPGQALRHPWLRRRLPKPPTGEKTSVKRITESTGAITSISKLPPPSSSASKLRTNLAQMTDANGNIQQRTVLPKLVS
Experimental: as §1, §2

T1 sequence (Q02750 whole entry): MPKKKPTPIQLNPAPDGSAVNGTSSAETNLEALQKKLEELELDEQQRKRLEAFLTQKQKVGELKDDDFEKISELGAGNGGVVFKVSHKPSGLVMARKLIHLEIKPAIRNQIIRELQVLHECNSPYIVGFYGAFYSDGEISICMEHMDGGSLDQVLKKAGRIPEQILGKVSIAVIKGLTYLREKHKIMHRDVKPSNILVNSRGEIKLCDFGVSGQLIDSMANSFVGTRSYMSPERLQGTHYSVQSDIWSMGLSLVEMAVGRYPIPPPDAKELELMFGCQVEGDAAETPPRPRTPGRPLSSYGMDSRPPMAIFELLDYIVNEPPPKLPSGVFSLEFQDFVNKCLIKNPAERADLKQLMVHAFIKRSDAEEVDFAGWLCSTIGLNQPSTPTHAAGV

Row | Compound | inhibition at 1 µM [1] [%] | inhibition at 1 µM [2] [%] | anti-GLI1 activity in Sufu-KO cells (in words) [3] | IC50 ([3]; Table 5, GLI1 mRNA) [nM] | inhibition at 1 µM [4] [%] | inhibition at 1 µM [5] [%] | inhibition at 1 µM [6] [%] | IC50 ([7]; ASZ001, Table 5, GLI1 mRNA) [nM] | inhibition at 1 µM [8] [%] | inhibition at 1 µM [9] [%] | IC50 ([3]; Table 7, GLI1 mRNA) [nM] | IC50 ([7]; ASZ001, Table 7, GLI1 mRNA) [nM]
1 | CCN(CC)c1ccc(C(Nc2ccccn2)c2ccc3ccc(C)nc3c2OC)cc1 (stereo not shown) [Compound 20, N-((4-Diethylaminophenyl)(8-methoxy-2-methylquinolin-7-yl)methyl)pyridin-2-amine] | 7 | 4 | inactive | > 25000 | 5 | 6 | 6 | 1300 ± 300 | -2 | -2 | – | –
2 | Cc1ccc2ccc(C(Nc3ccccn3)c3ccncc3)c(O)c2n1 (stereo not shown) [Compound 39, 7-((Pyridin-4-yl)(pyridin-2-ylamino)methyl)-2-methylquinolin-8-ol] | 14 | 6 | – | – | 4 | 8 | 2 | – | 0 | -4 | 2900 ± 1900 | 1900 ± 500
3 | Cc1ccc2ccc(C(Nc3ccccn3)c3ccc(N4CCCC4=O)cc3)c(O)c2n1 (stereo not shown) [Compound 48, 7-((4-(2-Oxopyrrolidin-1-yl)phenyl)(pyridin-2-ylamino)methyl)-2-methylquinolin-8-ol] | 14 | 7 | – | – | 4 | 5 | -2 | – | -1 | -1 | 820 ± 270 | 610 ± 340
